The text below walks through data of patent US9714247B2, “Multiple kinase pathway inhibitors” (Mannkind Corporation, priority 2012, dated 2017).

The EC50 is the concentration that produces a half-maximal response. For orientation: IC50 means the midpoint of a concentration-inhibition curve.

Where two headings read alike, the source gives them in different places. Some results are limits rather than exact numbers.

Assay [1] deals with DoHH2. As to the kind of experiment: CellTiter-Glo proliferation/viability assay. The format is cell-based, human. The conditions noted are these: 48 hrs, read-out: DoHH2 EC50. A general note: In ATP-based viability assays light output follows the ATP content of the culture.
Assay [2] has as its system Ramos. As to the kind of experiment: CellTiter-Glo proliferation/viability assay. It is filed as cell-based, human. The note with it: read-out: Ramos EC50.
The target of assay [3] is Src (Homo sapiens (Human), UniProt P12931). The conditions noted are these: read-out: Src IC50.
Assay [4] concerns the target Lyn (Homo sapiens (Human), UniProt P07948). The conditions noted are these: read-out: Lyn IC50.
For assay [5], the target named is BTK (Homo sapiens (Human), UniProt Q06187).
Sequence of BTK (Q06187 whole entry): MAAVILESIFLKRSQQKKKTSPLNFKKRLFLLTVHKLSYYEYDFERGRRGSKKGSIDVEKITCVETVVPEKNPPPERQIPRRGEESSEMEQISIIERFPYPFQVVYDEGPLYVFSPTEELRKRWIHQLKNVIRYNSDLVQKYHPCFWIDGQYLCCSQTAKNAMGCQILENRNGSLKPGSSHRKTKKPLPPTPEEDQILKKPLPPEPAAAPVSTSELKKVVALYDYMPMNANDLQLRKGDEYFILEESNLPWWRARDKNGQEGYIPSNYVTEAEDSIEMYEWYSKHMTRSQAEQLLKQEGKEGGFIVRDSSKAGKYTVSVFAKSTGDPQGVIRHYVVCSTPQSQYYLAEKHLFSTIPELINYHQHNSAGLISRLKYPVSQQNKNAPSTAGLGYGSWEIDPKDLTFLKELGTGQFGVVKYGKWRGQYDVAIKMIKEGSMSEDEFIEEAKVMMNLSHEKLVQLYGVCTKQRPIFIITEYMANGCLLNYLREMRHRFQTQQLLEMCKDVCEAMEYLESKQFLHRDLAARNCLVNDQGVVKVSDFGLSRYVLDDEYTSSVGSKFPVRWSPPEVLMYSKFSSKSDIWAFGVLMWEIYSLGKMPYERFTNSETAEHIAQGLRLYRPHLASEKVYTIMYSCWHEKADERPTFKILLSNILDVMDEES

Sequence of Lyn (P07948 whole entry): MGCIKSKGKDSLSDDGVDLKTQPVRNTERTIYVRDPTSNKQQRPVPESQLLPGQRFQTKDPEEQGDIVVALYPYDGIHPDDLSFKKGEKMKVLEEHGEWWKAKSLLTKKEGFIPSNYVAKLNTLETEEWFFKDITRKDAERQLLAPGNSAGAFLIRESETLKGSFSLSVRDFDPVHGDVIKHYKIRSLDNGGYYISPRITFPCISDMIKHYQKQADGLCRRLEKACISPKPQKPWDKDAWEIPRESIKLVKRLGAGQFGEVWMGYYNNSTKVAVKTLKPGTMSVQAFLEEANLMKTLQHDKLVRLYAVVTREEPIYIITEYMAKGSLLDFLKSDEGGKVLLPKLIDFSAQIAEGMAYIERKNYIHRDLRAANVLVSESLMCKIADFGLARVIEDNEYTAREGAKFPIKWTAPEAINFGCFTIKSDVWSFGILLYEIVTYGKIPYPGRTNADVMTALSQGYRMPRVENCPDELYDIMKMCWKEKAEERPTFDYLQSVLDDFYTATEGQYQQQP
Sequence of Src (P12931 whole entry, looked up): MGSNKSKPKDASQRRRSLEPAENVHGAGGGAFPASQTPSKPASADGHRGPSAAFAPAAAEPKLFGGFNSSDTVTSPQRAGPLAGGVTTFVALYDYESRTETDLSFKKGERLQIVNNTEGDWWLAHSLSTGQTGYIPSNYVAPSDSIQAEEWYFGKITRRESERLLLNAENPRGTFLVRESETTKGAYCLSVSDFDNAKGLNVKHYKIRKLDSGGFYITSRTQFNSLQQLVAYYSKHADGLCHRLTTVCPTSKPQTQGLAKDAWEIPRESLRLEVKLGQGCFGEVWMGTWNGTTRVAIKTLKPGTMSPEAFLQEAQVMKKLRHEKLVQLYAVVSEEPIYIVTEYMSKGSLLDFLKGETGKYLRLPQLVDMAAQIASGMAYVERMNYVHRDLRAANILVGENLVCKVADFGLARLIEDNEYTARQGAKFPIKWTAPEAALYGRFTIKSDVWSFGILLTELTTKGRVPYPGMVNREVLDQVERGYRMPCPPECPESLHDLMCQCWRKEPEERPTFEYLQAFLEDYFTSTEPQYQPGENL

In the case of `CCN(CC)CCOc1ccc(Nc2cc3c(cn2)cc(-c2c(F)cccc2F)c(=O)n3C2CCOC2)nc1` (single isomer, unassigned) [Compound 144, (R or S)-7-((5-(2-(diethylamino)ethoxy)pyridin-2-yl)amino)-3-(2,6-difluorophenyl)-1-(tetrahydrofuran-3-yl)-1,6-naphthyridin-2(1H)-one], the figures for the EC50 in assay [1] and in assay [2] (48 hrs) were under 1 µM and 1 to 10 µM, respectively. Also, the IC50 in assay [3], in assay [4] and in assay [5] (read-out: BTK IC50) was under 0.1 µM throughout.
On to `CCN(CC)CCOc1ccc(Nc2cc3c(cn2)cc(-c2c(Cl)cccc2Cl)c(=O)n3C2CCOC2)nc1` (single isomer, unassigned) [Compound 146, (R or S)-3-(2,6-dichlorophenyl)-7-((5-(2-(diethylamino)ethoxy)pyridin-2-yl)amino)-1-(tetrahydrofuran-3-yl)-1,6-naphthyridin-2(1H)-one], for which the EC50 in assay [1] was under 1 µM; in assay [2] (48 hrs) it was 1 to 10 µM. Moreover, the IC50 in assay [3], in assay [4] and in assay [5] (read-out: BTK IC50) was under 0.1 µM throughout.
`O=c1c(-c2c(Cl)cccc2Cl)cc2cnc(Nc3ccc(F)cn3)cc2n1C1CCOC1` (single isomer, unassigned) [Compound 148, (R or S)-3-(2,6-dichlorophenyl)-7-((5-fluoropyridin-2-yl)amino)-1-(tetrahydrofuran-3-yl)-1,6-naphthyridin-2(1H)-one]: the EC50 in assay [1] is under 1 µM; in assay [2] (48 hrs) it was over 10 µM. The IC50 in assay [3], in assay [4] and in assay [5] (read-out: BTK IC50) was under 0.1 µM throughout.
In the case of `CCn1c(=O)c(-c2ccccc2)cc2cnc(Nc3ncc(C)o3)cc21` [Compound 9, 1-Ethyl-7-(5-methyl-oxazol-2-ylamino)-3-phenyl-1H-[1,6]naphthyridin-2-one], the EC50 is 1 to 10 µM in assay [1] (Homo sapiens, DOHH-2) and over 10 µM in assay [2] (Homo sapiens, Ramos, 48 h). Also, the figures for the IC50 in assay [3], in assay [4] and in assay [5] were over 5 µM, over 5 µM and 1 to 5 µM, respectively.
Take `CCn1c(=O)c(-c2ccsc2)cc2cnc(Nc3ccc(C)cn3)cc21` [Compound 10, 1-Ethyl-7-(5-methyl-pyridin-2-ylamino)-3-thiophen-3-yl-1H-[1,6]naphthyridin-2-one]: the EC50 is over 10 µM in assay [1] (Homo sapiens, DOHH-2) and over 10 µM in assay [2] (Homo sapiens, Ramos, 48 hrs). Moreover, the IC50 in assay [3] is over 5 µM; in assay [4], over 5 µM; in assay [5] it was 1 to 5 µM.
Take `CCn1c(=O)c(-c2cccs2)cc2cnc(Nc3ccc(C)cn3)cc21` [Compound 11, 1-Ethyl-7-(5-methyl-pyridin-2-ylamino)-3-thiophen-2-yl-1H-[1,6]naphthyridin-2-one]: the EC50 was over 10 µM in assay [1] (Homo sapiens, DOHH-2) and over 10 µM in assay [2] (Homo sapiens, Ramos, 48 hrs). Besides, the IC50 was over 5 µM in assay [3], over 5 µM in assay [4] and 0.1 to 1 µM in assay [5].
On to `CCn1c(=O)c(C2CCCCC2)cc2cnc(Nc3ccc(C)cn3)cc21` [Compound 12, 3-Cyclohexyl-1-ethyl-7-(5-methyl-pyridin-2-ylamino)-1H-[1,6]naphthyridin-2-one], for which the EC50 in assay [1] (Homo sapiens, DOHH-2) was over 10 µM; in assay [2] (Homo sapiens, Ramos, 48 hrs), over 10 µM. Also, the IC50 in assay [3], in assay [4] and in assay [5] (read-out: BTK IC50) was over 5 µM in each case.
Turning to `CCn1c(=O)c(C(C)C)cc2cnc(Nc3ccc(C)cn3)cc21` [Compound 13, 1-Ethyl-3-isopropyl-7-(5-methyl-pyridin-2-ylamino)-1H-[1,6]naphthyridin-2-one], the EC50 in assay [1] (Homo sapiens, DOHH-2) fell in the range of 1 to 10 µM; in assay [2] (Homo sapiens, Ramos, 48 h) it was 1 to 10 µM. In addition, the IC50 in assay [3] was over 5 µM; in assay [4], over 5 µM; in assay [5], 1 to 5 µM.
In the case of `CCn1c(=O)c(CC(C)C)cc2cnc(Nc3ccc(C)cn3)cc21` [Compound 20, 1-Ethyl-3-isobutyl-7-(5-methyl-pyridin-2-ylamino)-1H-[1,6]naphth yridin-2-one], the EC50 in assay [1] (Homo sapiens, DOHH-2) is over 10 µM; in assay [2] (Homo sapiens, Ramos, 48 h) it was over 10 µM. The IC50 is over 5 µM in assay [3], over 5 µM in assay [4] and 0.1 to 1 µM in assay [5].
As for `CCn1c(=O)c(-c2ccc(F)cc2)cc2cnc(Nc3ccc(C)cn3)cc21` [Compound 26], the EC50 in assay [1] (Homo sapiens, DOHH-2) was over 10 µM; in assay [2] (Homo sapiens, Ramos, 48 hrs) it was over 10 µM. For the same compound, the IC50 in assay [3], in assay [4] and in assay [5] (read-out: BTK IC50) was over 5 µM in each case.
For the compound `CCn1c(=O)c(-c2cccc(F)c2)cc2cnc(Nc3ccc(C)cn3)cc21` [Compound 29, 1-ethyl-3-(3-fluorophenyl)-7-(5-methylpyridin-2-ylamino)-1,6-naphthyridin-2(1H)-one], the EC50 in assay [1] (Homo sapiens, DOHH-2) is over 10 µM; in assay [2] (Homo sapiens, Ramos, 48 hrs), over 10 µM. The IC50 in assay [3], in assay [4] and in assay [5] (read-out: BTK IC50) was over 5 µM in each case.
For `CCN(CC)CCOc1ccc(Nc2cc3c(cn2)cc(C(C)C)c(=O)n3C2CC2)nc1` [Compound 36, 1-Cyclopropyl-7-[5-(2-diethylamino-ethoxy)-pyridin-2-ylamino]-3-isopropyl-1H-[1,6]naphthyridin-2-one], the EC50 in assay [1] (Homo sapiens, DOHH-2) is 1 to 10 µM; in assay [2] (Homo sapiens, Ramos, 48 h), over 10 µM.
Regarding `CCOC(=O)/C=C/c1cc2cnc(Nc3ccc(C)cn3)cc2n(CC)c1=O` [Compound 38], the EC50 in assay [1] (Homo sapiens, DOHH-2) was over 10 µM; in assay [2] (Homo sapiens, Ramos, 48 hrs) it was over 10 µM. In addition, the IC50 in assay [3], in assay [4] and in assay [5] (read-out: BTK IC50) was over 5 µM throughout.
Consider `CCn1c(=O)c(-c2c(Cl)cccc2Cl)cc2cnc(Nc3ccc(F)cn3)cc21` [Compound 76, 3-(2,6-dichlorophenyl)-1-ethyl-7-((5-fluoropyridin-2-yl)amino)-1,6-naphthyridin-2(1H)-one], for which the EC50 in assay [1] (Homo sapiens, DOHH-2) was under 1 µM; in assay [2] (Homo sapiens, Ramos, 48 h), over 10 µM. In addition, the figures for the IC50 in assay [3], in assay [4] and in assay [5] were under 0.1 µM, under 0.1 µM and 0.1 to 1 µM, respectively.
For the compound `O=c1c(-c2c(F)cccc2F)cc2cnc(Nc3ccc(F)cn3)cc2n1C1CCOCC1` [Compound 80, 3-(2,6-difluorophenyl)-7-((5-fluoropyridin-2-yl)amino)-1-(tetrahydro-2H-pyran-4-yl)-1,6-naphthyridin-2(1H)-one], the EC50 was under 1 µM in assay [1] (Homo sapiens, DOHH-2) and over 10 µM in assay [2] (Homo sapiens, Ramos, 48 h). Also, the 50% inhibitory concentration (IC50) in assay [3] is over 5 µM; in assay [4] it was under 0.1 µM.
As for `O=c1c(-c2c(F)cccc2F)cc2cnc(Nc3ccc(F)cn3)cc2n1-c1ccccc1` [Compound 81, 3-(2,6-difluorophenyl)-7-((5-fluoropyridin-2-yl)amino)-1-phenyl-1,6-naphthyridin-2(1H)-one], the EC50 was 1 to 10 µM in assay [1] (Homo sapiens, DOHH-2) and over 10 µM in assay [2] (Homo sapiens, Ramos, 48 h). In addition, the IC50 in assay [3] and in assay [4] was under 0.1 µM each time.
On to `CCN(CC)CCOc1ccc(Nc2cc3c(cn2)cc(-c2ccccc2)c(=O)n3-c2ccncc2)nc1` [Compound 82, 7-[5-(2-Diethylamino-ethoxy)-pyridin-2-ylamino]-3-phenyl-1-pyridin-4-yl-1H-[1,6]naphthyridin-2-one], for which the EC50 in assay [1] (Homo sapiens, DOHH-2) is under 1 µM; in assay [2] (Homo sapiens, Ramos, 48 hrs), over 10 µM. Further, the results for the 50% inhibitory concentration (IC50) in assay [3], in assay [4] and in assay [5] were under 0.1 µM, under 0.1 µM and 0.1 to 1 µM, respectively.
On to `CCN(CC)CCOc1ccc(Nc2cc3c(cn2)cc(-c2ccccc2)c(=O)n3CC)cc1` [Compound 86], for which the EC50 was 1 to 10 µM in assay [1] (Homo sapiens, DOHH-2) and over 10 µM in assay [2] (Homo sapiens, Ramos, 48 h). In addition, the IC50 in assay [3] was 1 µM; in assay [4] it was under 0.1 µM.
Consider `CCn1c(=O)ccc2cnc(Nc3ccc(C)cn3)cc21` [Compound 87], for which the EC50 lay within 1 to 10 µM in assay [1] (Homo sapiens, DOHH-2) and 1 to 10 µM in assay [2] (Homo sapiens, Ramos, 48 h). Also, the IC50 in assay [3] was over 5 µM; in assay [4], over 5 µM; in assay [5], 1 to 5 µM.
Take `CCn1c(=O)c(Br)cc2cnc(Nc3ccc(C)cn3)cc21` [Compound 88]: the 50% effective concentration (EC50) in assay [1] (Homo sapiens, DOHH-2) was under 1 µM; in assay [2] (Homo sapiens, Ramos, 48 h), under 1 µM. In addition, the IC50 was under 0.1 µM in assay [3], over 5 µM in assay [4] and 0.1 to 1 µM in assay [5].
With `CCn1c(=O)c(-c2ccccc2)cc2cnc(NC3=NCCO3)cc21` [Compound 90], the EC50 in assay [1] (Homo sapiens, DOHH-2) was over 10 µM; in assay [2] (Homo sapiens, Ramos, 48 hrs) it was over 10 µM. Besides, in assay [5] (read-out: BTK IC50), the concentration for half-maximal inhibition (IC50) was over 5 µM.
Take `CCn1c(=O)c(-c2ccccc2)cc2cnc(NC3=NCCS3)cc21` [Compound 91]: the EC50 in assay [1] (Homo sapiens, DOHH-2) is over 10 µM; in assay [2] (Homo sapiens, Ramos, 48 hrs) it was over 10 µM. Moreover, the IC50 in assay [5] (read-out: BTK IC50) was over 5 µM.
With `CCN(CC)CCOc1ccc(Nc2cc3c(cn2)cc(-c2c(F)ccc(Cl)c2F)c(=O)n3CC)nc1` [Compound 97, 3-(3-chloro-2,6-difluorophenyl)-7-((5-(2-(diethylamino)ethoxy)pyridin-2-yl)amino)-1-ethyl-1,6-naphthyridin-2(1H)-one], the EC50 in assay [1] (Homo sapiens, DOHH-2) was under 1 µM; in assay [2] (Homo sapiens, Ramos, 48 h) it was 1 to 10 µM. Besides, the values for the IC50 in assay [3], in assay [4] and in assay [5] were under 0.1 µM, under 0.1 µM and 0.1 to 1 µM, respectively.
For the compound `CCN(CC)CCOc1ccc(Nc2cc3c(cn2)cc(-c2c(Cl)cccc2OC)c(=O)n3CC)nc1` [Compound 108, 3-(2-chloro-6-methoxyphenyl)-7-((5-(2-(diethylamino)ethoxy)pyridin-2-yl)amino)-1-ethyl-1,6-naphthyridin-2(1H)-one], the EC50 in assay [1] (Homo sapiens, DOHH-2) is under 1 µM; in assay [2] (Homo sapiens, Ramos, 48 hrs) it was over 10 µM. The IC50 in assay [3], in assay [4] and in assay [5] (read-out: BTK IC50) was under 0.1 µM in each case.
`CCn1c(=O)c(-c2cc(OC)ccc2F)cc2cnc(Nc3ccc(N(C)C4CCN(C)CC4)cn3)cc21` [Compound 119, 1-ethyl-3-(2-fluoro-5-methoxyphenyl)-7-((5-(methyl(1-methylpiperidin-4-yl)amino)pyridin-2-yl)amino)-1,6-naphthyridin-2(1H)-one]: the EC50 is under 1 µM in assay [1] (Homo sapiens, DOHH-2) and 1 to 10 µM in assay [2] (Homo sapiens, Ramos, 48 hrs). The compound further showed an IC50 in assay [5] of 0.1 to 1 µM.
